Results as given in patent US6517870B1, “Oral formulation comprising biguanide and an organic acid” (Sumitomo Pharmaceuticals Company, Limited, priority 1998, dated 2003).
Counter-ions that a name gives are not always drawn.

Assay: Stability experiment: remaining amount of metformin by HPLC after heating
Assay type: physicochemical
Conditions: below pH 3.5
Method: Tasting and stability experiments on the solutions at various pH of Example 13 were carried out, in the same manner as Experiment 1. A stability experiment was carried out by measuring the remaining amount of metformin in the solutions with HPLC after heating the solutions in vials at 60 C. for 2 weeks.

stability in solution: not stable
SMILES: CN(C)C(=N)N=C(N)N [Metformin hydrochloride]
